# Experimental data published in article PMC6829466 (International Journal of Molecular Sciences, 2019).
# Read-outs that look alike come from different tables or passages of the source.
# How the values were obtained:
# HIV = details: cited from earlier work
# [1] = Cytotoxicity, MTT assay in CEM-T4 cells; details: human
# Description: (§1) Evaluation of anti-HIV activity consisted of measurements of p24 antigen using the Genscreen ULTRA HIV Ag-Ab Kit. […] We included betulin and betulinic acid in our studies in order to broaden the structure-activity study. BVM, the first HIV-1 maturation inhibitor, was applied as a reference compound.
# For the determination of compounds cytotoxicity, CEM-T4 cells were obtained from the NIH AIDS Reagent Program (NIH, US) and were cultured in RPMI supplemented with 10% FCS (Biochrom) and antibiotics at 37 °C in 5% CO2 on 96-well culture plates. […] Cultures in a neat medium (RPMI, 10% FCS) were used as a control. Viability of cells was determined after 7 days using the MTT assay in which 10 μL of MTT solution (5 mg/mL) was added to each culture plate well, and cultures were incubated for 3 h at a temperature of 37 °C. After the centrifugation, the supernatant was removed, and DMSO was added for lysis of the cells and to dissolve crystals of formazan. Color intensity was measured with a plate reader at 560 nm. Cell viability was determined by the Equation (1):Viability (%) = (OD of samples enriched in test drugs/OD of control samples) × 100(1) where OD means optical density.
# Based on the calculations, a graph was created regarding the relationship between the concentration of the compound and the viability from which CC50 was established.
# HIV-1 [2] = test: microbe, parasite or virus in culture; details: for TI (selectivity index): HIV-infected CEM-T4 cell line
# Description: as §1
# CEM-T4 cells were preincubated (culture plates with 96 flat bottom wells) for 24 h under standard conditions (37 °C, 5% CO2) and in a standard medium (RPMI, FCS 10%) enriched with tested compounds in the concentration range from 0.02 µM to 10 µM. In each well, 20,000 cells were suspended in the solution of a tested compound (200 μL). For each concentration, cultures were run in triplicate. A wild-type HIV-1 was isolated from the HIV-positive patient in the Laboratory of Virology of the National Medicines Institute (Warsaw, Poland) and was used as a reference. A culture of CEM-T4 lines in a standard neat medium (RPMU, FCS 10%) was used to produce viruses. After 24 h of incubation in a medium enriched with a tested compound, cells were inoculated with a known amount of HIV, and after 7 days, HIV replication was evaluated through the measurement of secreted viral protein p24 carried out with the enzyme-linked immunosorbent assay (ELISA) technique. For each tested compound and for each concentration, the measurements of p24 antigen were done in triplicate using the Genscreen ULTRA HIV Ag-Ab Kit (Biorad, Warszawa, Poland) and following manufacturer’s instructions. The absorbance of the sample was determined as an OD measured at 650 nm. HIV replication capacity was calculated using the Equation (2):Virus replication (%) = (OD of drug-enriched samples/OD of control samples) × 100(2)
# The results were presented by a graph showing the ratio of HIV replication to the concentration of the tested preparation.
# HIV-1 [3] = system: HIV-1; design: method as in PMID 8176401; details: inhibiting HIV-1 replication; cited from earlier work
# [4] = Human immunodeficiency virus 1, CEM-T4, 168 h, wild-type HIV-1 in CEM-T4 cells, p24 antigen, 7 days, 50% inhibition of replication
# [5] = wild-type HIV-1 in CEM-T4 cells, p24 antigen, 7 days, 50% inhibition of replication
Compound,CC50 at 7 days [1],TI (selectivity index) (HIV-1 [2]),IC50 (HIV-1 [2]; [4]),further results
"3,28-di(dimethylglutaryl)betulin",,,,EC50 (HIV): 0.00066 µM
C=C(CP(=O)(OCC)OCC)C1CCC2(C(=O)O)CCC3(C)C(CCC4C5(C)CCC(OC(=O)CC(C)(C)CC(=O)O)C(C)(C)C5CCC43C)C12 (stereo not shown) [Compound 14b],> 68 µM,>75,0.9 ± 0.12 µM,
C=C(CP(=O)(OCC)OCC)C1CCC2(C(=O)O)CCC3(C)C(CCC4C5(C)CCC(OC(=O)CC(C)(C)C(=O)O)C(C)(C)C5CCC43C)C12 (stereo not shown) [Compound 14a],> 68 µM,,,
"CCOP(=O)(C=C(C)C1CCC2(C(=O)O)CCC3(C)C(CCC4C5(C)CCC(O)C(C)(C)C5CCC43C)C12)OCC (stereo not shown) [Compound 10, 29-Diethoxyphosphorylbetulinic acid]",80 ± 1.3 µM,<8,> 10 µM,
"C=C(C)[C@@H]1CC[C@]2(CO)CC[C@]3(C)[C@H](CC[C@@H]4[C@@]5(C)CC[C@H](O)C(C)(C)[C@@H]5CC[C@]43C)[C@@H]12 [betulin, lup-20(29)-ene-3β,28-diol, reference compound]",46 ± 3.01 µM,,> 10 µM,
C=C(COP(=O)(OCC)OCC)C1CCC2(C(=O)O)CCC3(C)C(CCC4C5(C)CCC(OC(=O)CCC(C)(C)C(=O)O)C(C)(C)C5CCC43C)C12 (stereo not shown) [Compound 12c],64 ± 1.84 µM,16,4 ± 1.65 µM,
CCOP(=O)(C=C(C)C1CCC2(C(=O)O)CCC3(C)C(CCC4C5(C)CCC(OC(=O)CCC(C)(C)C(=O)O)C(C)(C)C5CCC43C)C12)OCC (stereo not shown) [Compound 13c],> 68 µM,,> 10 µM,
"C=C(C)[C@@H]1CC[C@]2(C(=O)O)CC[C@]3(C)[C@H](CC[C@@H]4[C@@]5(C)CC[C@H](OC(=O)CC(C)(C)C(=O)O)C(C)(C)[C@@H]5CC[C@]43C)[C@@H]12 [bevirimat, 3-O-(3′,3′-dimethylsuccinyl) betulinic acid, reference compound]",,,,"CC50 at 7 days ([1]; CEM-T4 cells): 29 ± 2.43 µM; IC50 (HIV-1 [2]; Human immunodeficiency virus 1, CEM-T4, 168 h): 0.03 ± 0.009 µM; EC50 (HIV; literature reports): 0.00035 µM"
C=C(COP(=O)(OCC)OCC)C1CCC2(C(=O)O)CCC3(C)C(CCC4C5(C)CCC(OC(=O)CC(C)(C)CC(=O)O)C(C)(C)C5CCC43C)C12 (stereo not shown) [Compound 12b],28 ± 1.64 µM,47,0.6 ± 0.04 µM,
C=C(COP(=O)(OCC)OCC)C1CCC2(C(=O)O)CCC3(C)C(CCC4C5(C)CCC(O)C(C)(C)C5CCC43C)C12 (stereo not shown) [Compound 9],18 ± 1.79 µM,,> 10 µM,
CCOP(=O)(C=C(C)C1CCC2(C(=O)O)CCC3(C)C(CCC4C5(C)CCC(OC(=O)CC(C)(C)C(=O)O)C(C)(C)C5CCC43C)C12)OCC (stereo not shown) [Compound 13a],> 68 µM,>35,< 2 µM,IC50 (HIV-1 [2]; [5]): 2 ± 0.72 µM
CCOP(=O)(C=C(C)C1CCC2(C(=O)O)CCC3(C)C(CCC4C5(C)CCC(OC(=O)CC(C)(C)CC(=O)O)C(C)(C)C5CCC43C)C12)OCC (stereo not shown) [Compound 13b],> 68 µM,>8,8.8 ± 1.7 µM,
"C=C(CP(=O)(OCC)OCC)C1CCC2(C(=O)O)CCC3(C)C(CCC4C5(C)CCC(O)C(C)(C)C5CCC43C)C12 (stereo not shown) [Compound 11, 30-Diethoxyphosphorylbetulinic Acid]",> 42 µM,,> 10 µM,
"C=C(C)[C@@H]1CC[C@]2(C(=O)O)CC[C@]3(C)[C@H](CC[C@@H]4[C@@]5(C)CC[C@H](O)C(C)(C)[C@@H]5CC[C@]43C)[C@@H]12 [betulinic acid, 3β-hydroxy-20(29)-lupaene-28-oic acid, reference compound]",5 ± 2.44 µM,,> 10 µM,EC50 (HIV-1 [3]): 1.6 µM
"C=C(C)C1CCC2(C(=O)O)CCC3(C)C(CCC4C5(C)CCC(OC(=O)CC(C)(C)CC(=O)O)C(C)(C)C5CCC43C)C12 (stereo not shown) [3′,3′-dimethylglutarylbetulinic acid]",,,,EC50 (HIV; literature reports): 0.0023 µM
C=C(CP(=O)(OCC)OCC)C1CCC2(C(=O)O)CCC3(C)C(CCC4C5(C)CCC(OC(=O)CCC(C)(C)C(=O)O)C(C)(C)C5CCC43C)C12 (stereo not shown) [Compound 14c],> 68 µM,>68,1 ± 0.17 µM,
C=C(COP(=O)(OCC)OCC)C1CCC2(C(=O)O)CCC3(C)C(CCC4C5(C)CCC(OC(=O)CC(C)(C)C(=O)O)C(C)(C)C5CCC43C)C12 (stereo not shown) [Compound 12a],52 ± 1.07 µM,52,< 2 µM,IC50 (HIV-1 [2]; [5]): 1 ± 0.33 µM
